Our source for the IC50 and inhibition values is patent publication US7977387B2, “Aminobenzophenone compounds” (Leo Pharma A/S, priority 2003, dated 2011).

One experiment deals with IL-1β. Briefly: Inhibition of IL-1β secretion in LPS stimulated peripheral blood mononuclear cells. Format: cell-based. Particulars: PBMC; LPS stimulated human peripheral blood mononuclear cells, 18 hours, ELISA; read-out: The median inhibition concentration (IC50, nM) of IL-1β. A digest of the protocol:
(§1)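 Human PBMCs (5×10^5 cells/ml, RPMI 1640 + 2% FCS) pre-treated with compound 30 min, then stimulated with LPS ([…]) for 18 h. Secreted IL-1β and TNF-α quantified by ELISA; IC50 values calculated.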

For experiment [1], the system named is LPS induced TNF-α response. The experiment in a line: In vivo screening model of LPS induced TNF-α response in mice. Particulars: Mus musculus, mice (C3H/HeN), dosed 1 hour prior to LPS, plasma TNF-α 80-90 minutes after LPS, vs LPS treated control group, read-out: In vivo inhibition of LPS induced TNF-α production (in %). How it is done:
In Vivo Screening Model of LPS Induced TNF-α Response in Mice
To study the effect of compounds of the present invention in vivo, an in vivo screening model of LPS induced TNF-α response in mice was set up as follows: Groups of 6 mice (C3H/HeN, female, about 8 weeks (20 g), Bomholtgaard) were dosed with test compounds in suspension vehicle 1 hour prior to LPS administration (LPS from E. coli 055:B5, L-4005, Sigma). At time 0, the mice were dosed ip with 1.0 mg LPS/kg. After anesthetization with Hypnorm/Dormicum, the mice were bled from the periorbital venous plexus 80-90 minutes after LPS administration. The blood samples were sampled in EDTA stabilised tubes and centrifuged at 4000 rpm for 10 minutes at 4° C. The plasma level of TNF-α was analysed by ELISA. Compound 156 of WO 98/32730 was used as reference compound. The plasma level of TNF-α was determined using a sandwich ELISA. Microtiter plates were coated with a monoclonal antibody against mouse TNF-α, washed and blocked with a casein buffer. Samples of mouse TNF-α recombinant standards were added to the wells of the microtiter plates and incubated. All standards were tested in triplicate, all plasma samples in single. After sample and standard incubation, the plates were washed and incubated with biotinylated polyclonal secondary antibody against mouse TNF-α and washed. Enzyme conjugate was added to all wells and incubated. Substrate was added and the enzyme/substrate reaction stopped after 15 minutes at room temperature with 1M H2SO4. The colour development (OD) was measured at 450 nm on an ELISA reader and the background OD at 620 nm was subtracted. […] The results of the tested compounds are indicated as a percentage inhibition compared to an LPS treated control group. Compounds were tested at 10 mg/kg. The Mann-Whitney test was used to compare drug treated groups to the LPS treated control group (p<0.05).

The next experiment has as its system TNF-α. Briefly: Inhibition of TNF-α secretion in LPS stimulated peripheral blood mononuclear cells. Format: cell-based. Particulars: PBMC; LPS stimulated human peripheral blood mononuclear cells, 18 hours, ELISA; read-out: The median inhibition concentration (IC50, nM) of TNF-α. A digest of the protocol: as §1
In general terms: ELISA stands for enzyme-linked immunosorbent assay.

One may read the inhibition as the drop in the measured response relative to a control, in per cent.

On to `C=CCNC(=O)c1ccc(C)c(C(=O)c2ccc(Nc3ccc(F)cc3F)cc2Cl)c1` [Compound 170, N-Allyl-3-[2-chloro-4-(2,4-difluoro-phenylamino)-benzoyl]-4-methyl-benzamide], for which the values for the IC50 in the experiment on IL-1β and in the experiment on TNF-α were 3.2 nM and 2.5 nM, respectively. Further, in experiment [1], the inhibition at 10 mg/kg turned out to be 87%.
For `COc1ccc(C(=O)NCCO)cc1C(=O)c1ccc(Nc2c(F)cccc2F)cc1Cl` [Compound 173, 3-[2-Chloro-4-(2,6-difluoro-phenylamino)-benzoyl]-N-(2-hydroxy-ethyl)-4-methoxy-benzamide], the results for the IC50 in the experiment on IL-1β and in the experiment with TNF-α were 2.5 nM and 2 nM, respectively. For the same compound, in experiment [1], the inhibition at 10 mg/kg was 90%.
Consider `COc1ccc(C(=O)NCCF)cc1C(=O)c1ccc(Nc2c(F)cccc2F)cc1Cl` [Compound 174], for which the figures for the IC50 in the experiment with IL-1β and in the experiment on TNF-α were 3.2 nM and 2 nM, respectively. The inhibition at 10 mg/kg in experiment [1] was 64%.
Taken in the same sequence, the figures for `COc1ccc(C(=O)NCCCO)cc1C(=O)c1ccc(Nc2c(F)cccc2F)cc1Cl` [Compound 176, 3-[2-Chloro-4-(2,6-difluoro-phenylamino)-benzoyl]-N-(3-hydroxy-propyl)-4-methoxy-benzamide] were 3.2 nM, 2 nM and 52%.
Turning to `COc1ccc(C(=O)NC(C)(C)CO)cc1C(=O)c1ccc(Nc2c(F)cccc2F)cc1Cl` [Compound 178, 3-[2-Chloro-4-(2,6-difluoro-phenylamino)-benzoyl]-N-(2-hydroxy-1,1-dimethyl-ethyl)-4-methoxy-benzamide], the IC50 came to 6.3 nM with IL-1β and 1.6 nM in the experiment on TNF-α. In experiment [1], the inhibition at 10 mg/kg is 67%.
Taken in the same sequence, the figures for `Cc1ccc(C(=O)NCCO)cc1C(=O)c1ccc(Nc2cccc(F)c2C)cc1Cl` [Compound 186, 3-[2-Chloro-4-(3-fluoro-2-methyl-phenylamino)-benzoyl]-N-(2-hydroxy-ethyl)-4-methyl-benzamide] were 0.8 nM, 0.5 nM and 92%.
As to `Cc1ccc(C(=O)NCCO)cc1C(=O)c1ccc(Nc2ccc(F)cc2Cl)cc1Cl` [Compound 188, 3-[2-Chloro-4-(2-chloro-4-fluoro-phenylamino)-benzoyl]-N-(2-hydroxy-ethyl)-4-methyl-benzamide], the IC50 in the experiment with IL-1β was 0.9 nM; in the experiment with TNF-α, 0.5 nM. Besides, the inhibition at 10 mg/kg in experiment [1] is 95%.
For `COc1ccc(C(=O)NCC(F)F)cc1C(=O)c1ccc(Nc2ccc(F)cc2)cc1Cl` [Compound 196, 3-[2-Chloro-4-(4-fluoro-phenylamino)-benzoyl]-N-(2,2-difluoro-ethyl)-4-methoxy-benzamide], in that order: 3.2 nM, 1 nM and 66%.
With `COc1ccc(C(=O)NCC(O)CO)cc1C(=O)c1ccc(Nc2ccc(F)cc2)cc1Cl` (stereo not drawn) [Compound 198, 3-[2-Chloro-4-(4-fluoro-phenylamino)-benzoyl]-N-(2,3-dihydroxy-propyl)-4-methoxy-benzamide], the IC50 with IL-1β stood at 1.1 nM; with TNF-α it was 0.4 nM. Besides, the inhibition at 10 mg/kg in experiment [1] came out at 76%.
For `COc1ccc(C(=O)NCC(O)CO)cc1C(=O)c1ccc(Nc2ccccc2)cc1Cl` (stereo not drawn) [Compound 202, 3-(2-Chloro-4-phenylamino-benzoyl)-N-(2,3-dihydroxy-propyl)-4-methoxy-benzamide], in that order: 5 nM, 2 nM and 67%.
For `CSCCC(=O)Nc1ccc(C)c(C(=O)c2ccc(Nc3ccc(F)cc3F)cc2Cl)c1` [Compound 251, N-{3-[2-Chloro-4-(2,4-difluoro-phenylamino)-benzoyl]-4-methyl-phenyl}-3-methylsulfanyl-propionamide], in that order: 1.1 nM, 0.4 nM and 49%.
For `Cc1ccc(NC(=O)NCCO)cc1C(=O)c1ccc(Nc2ccc(F)cc2F)cc1Cl` [Compound 260, 1-{3-[2-Chloro-4-(2,4-difluoro-phenylamino)-benzoyl]-4-methyl-phenyl}-3-(2-hydroxy-ethyl)-urea], in that order: 1.8 nM, 0.5 nM and 95%.
Take `CCCNC(=O)Nc1ccc(C)c(C(=O)c2ccc(Nc3ccc(F)cc3F)cc2Cl)c1` [Compound 264, 1-{3-[2-Chloro-4-(2,4-difluoro-phenylamino)-benzoyl]-4-methyl-phenyl}-3-propyl-urea]: the IC50 in the experiment on IL-1β stood at 1 nM; in the experiment with TNF-α, 0.3 nM. Further, in experiment [1], the inhibition at 10 mg/kg turned out to be 87%.
As to `Cc1ccc(NC(=O)NC2CCCCC2)cc1C(=O)c1ccc(Nc2ccc(F)cc2F)cc1Cl` [Compound 266, 1-{3-[2-Chloro-4-(2,4-difluoro-phenylamino)-benzoyl]-4-methyl-phenyl}-3-cyclohexyl-urea], the IC50 with IL-1β is 0.9 nM; in the experiment on TNF-α, 0.4 nM. Also, in experiment [1], the inhibition at 10 mg/kg turned out to be 54%.
Regarding `C=CCOC(=O)Nc1ccc(C)c(C(=O)c2ccc(Nc3ccc(F)cc3F)cc2Cl)c1` [Compound 278, {3-[2-Chloro-4-(2,4-difluoro-phenylamino)-benzoyl]-4-methyl-phenyl}-carbamic acid allyl ester], the IC50 with IL-1β amounted to 1.3 nM; with TNF-α it was 0.6 nM. Besides, in experiment [1], the inhibition at 10 mg/kg stood at 65%.
